Results as given in US20230146455A1, “TREATMENT OF INFLAMMATORY DISEASES WITH PEPTIDES AND PHARMACEUTICAL COMPOSITIONS” (Yuyu Pharma, Inc., priority 2020, published 2023).
Values joined by “and” are separate entries in the source; they are usually repeats but may differ in a detail not shown here. Equal entries are not always repeated. Where a SMILES comes first, the peptide text is derived from it. [ ]: non-standard residue; d: D form. Hyp = O=C(O)[C@@H]1C[C@@H](O)CN1

How the values were obtained:
TNF-alpha = test: Example 9 Luminex, LPS hPBMCs: TNF-alpha; assay type: cell-based, human
Method: (§1) Treatment Human PBMCs were pretreated with YY-101, YDE-011 and YDE-043 or reference compound; Xiidra® at various concentration (ranging from 1 nM to 100 uM) for 2 h before stimulation. An equal volume of 0.5% DMSO was used as a vehicle control. Then, the cells were treated with LPS at 5 ug/ml. The supernatants from treated cells were harvested at 24 h and placed in a 96 well for Luminex cytokine & chemokine profiling using a Luminex 200 multiplex assay (Luminex; R&D system, USA).
(§2) The main study arm with triplicate wells per group in a 24-well plate: • 1. Blank • 2. PBMC: 0.5% DMSO • 3. PBMC+LPS (5 ug/ml) • 4. PBMC+YY-101 100 uM • 5. PBMC+YY-101 10 uM • 6. PBMC+YY-101 1 uM • 7. PBMC+YY-101 0.1 uM • 8. PBMC+YY-101 0.01 uM • 9. PBMC+LPS (5 ug/ml)+Xiidra®100 uM • 10. PBMC+LPS (5 ug/ml)+Xiidra® 10 uM • 11. PBMC+LPS (5 ug/ml)+Xiidra® 1 uM • 12. PBMC+LPS (5 ug/ml)+Xiidra®0.1 uM • 13. PBMC+LPS (5 ug/ml)+Xiidra®0.01 uM • 14. PBMC+LPS (5 ug/ml)+Xiidra®0.001 uM • 15. PBMC+LPS (5 ug/ml)+YY-101 100 uM • 16. PBMC+LPS (5 ug/ml)+YY-101 10 uM • 17. PBMC+LPS (5 ug/ml)+YY-101 1 uM • 18. PBMC+LPS (5 ug/ml)+YY-101 0.1 uM • 19. PBMC+LPS (5 ug/ml)+YY-101 0.01 uM • 20. PBMC+LPS (5 ug/ml)+YY-101 0.001 uM • 21. PBMC+LPS (5 ug/ml)+YDE-011 100 uM • 22. PBMC+LPS (5 ug/ml)+YDE-011 10 uM • 23. PBMC+LPS (5 ug/ml)+YDE-011 1 uM • 24. PBMC+LPS (5 ug/ml)+YDE-011 0.1 uM • 25. PBMC+LPS (5 ug/ml)+YDE-011 0.01 uM • 26. PBMC+LPS (5 ug/ml)+YDE-011 0.001 uM • 27. PBMC+LPS (5 ug/ml)+YDE-043 100 uM • 28. PBMC+LPS (5 ug/ml)+YDE-043 10 uM • 29. PBMC+LPS (5 ug/ml)+YDE-043 1 uM • 30. PBMC+LPS (5 ug/ml)+YDE-043 0.1 uM • 31. PBMC+LPS (5 ug/ml)+YDE-043 0.01 uM • 32. PBMC+LPS (5 ug/ml)+YDE-043 0.001 uM
(§3) Multiplex assay was used to measure 30 cytokines and chemokines. The 1:2, 1:10 and 1:200 diluted cell supernatant and serial dilution of the standard were dispensed into a 96 well plate at 50 ul/well. Then, the pre-mixed cocktail of antibody-coated magnetic beads was dispensed at 50 ul/well and incubated at room temperature for 2 h in a horizontal orbital microplate shaker at 800±500 rpm. The beads were washed using a magnetic device to prevent loss. The biotin-antibody was dispensed in 50 ul of each well and incubated at room temperature for 1 h in a shaker at 800±500 rpm. After washing, streptavidin-PE was added at 50 ul/well and incubated at room temperature for 30 min in a shaker under the same conditions. Finally, after washing, wash buffer (100 ul/well) was added to the plate and incubated in a shaker for 2 min. The Luminex™ 200 setting were set according to the manufacturer's protocol. The data was calculated with a standard five-parameter logistic nonlinear regression analysis of the data (xPonent software 4.2, USA). The levels of cytokine/chemokine are normalized to the live cell counts (1×10^5 cells/mL) and presented as concentrations per mL (pg/mL or ng/mL).

CCL4/MIP-1 beta = test: Example 9 Luminex, LPS hPBMCs: CCL4/MIP-1 beta; assay type: cell-based, human; conditions: for Concentration (CCL4/MIP-1 beta) / conc/live cell (CCL4/MIP-1 beta) / MFI (Bead name: CCL4/MIP-1 beta): PBMC + LPS(5 ug/ml); for MFI (Bead name: CCL4/MIP-1 beta): dilution 10
Method: as §1, §2, §3

[1] = PBMC + LPS(5 ug/ml) + test article 0.001 uM, Mean
[2] = PBMC + LPS(5 ug/ml) + test article 0.001 uM, individual replicates (1st, 2nd, 3rd)
[3] = PBMC + LPS(5 ug/ml) + test article 0.01 uM, Mean
[4] = PBMC + LPS(5 ug/ml) + test article 0.01 uM, individual replicates (1st, 2nd, 3rd)
[5] = PBMC + LPS(5 ug/ml) + test article 0.1 uM, Mean
[6] = PBMC + LPS(5 ug/ml) + test article 0.1 uM, individual replicates (1st, 2nd, 3rd)
[7] = PBMC + LPS(5 ug/ml) + test article 1 uM, Mean
[8] = PBMC + LPS(5 ug/ml) + test article 1 uM, individual replicates (1st, 2nd, 3rd)
[9] = PBMC + LPS(5 ug/ml) + test article 10 uM, Mean
[10] = PBMC + LPS(5 ug/ml) + test article 10 uM, individual replicates (1st, 2nd, 3rd)
[11] = PBMC + LPS(5 ug/ml) + test article 100 uM, Mean
[12] = PBMC + LPS(5 ug/ml) + test article 100 uM, individual replicates (1st, 2nd, 3rd)
[13] = PBMC + test article 0.01 uM, no LPS, Mean
[14] = PBMC + test article 0.01 uM, no LPS, individual replicates (1st, 2nd)
[15] = PBMC + test article 0.1 uM, no LPS, Mean
[16] = PBMC + test article 0.1 uM, no LPS, individual replicates (1st, 2nd)
[17] = PBMC + test article 1 uM, no LPS, Mean
[18] = PBMC + test article 1 uM, no LPS, individual replicates (1st, 2nd)
[19] = PBMC + test article 10 uM, no LPS, Mean
[20] = PBMC + test article 10 uM, no LPS, individual replicates (1st, 2nd)
[21] = PBMC + test article 100 uM, no LPS, Mean
[22] = PBMC + test article 100 uM, no LPS, individual replicates (1st, 2nd)
[23] = test article 0.001 uM, single replicates

What does the source list for `CC(C)C[C@H](NC(=O)CNC(=O)[C@H](CC(=O)O)NC(=O)[C@H](CCC(N)=O)NC(=O)CNC(=O)[C@@H]1C[C@@H](O)CN1)C(=O)N[C@@H](C)C(=O)NCC(=O)N1CCC[C@H]1C(=O)N[C@@H](CCCCN)C(=O)O` [YY-101] (H-[Hyp]GQDGLAGPK-OH; N-terminus and C-terminus assumed)?
LPS-induced TNF-alpha (in words) (TNF-alpha; LPS 5 ug/mL 24 hrs, at as low as 1 nM): significantly reduced; TNF-alpha Concentration (TNF-alpha; [1]): 2433.4 pg/mL; TNF-alpha conc/live cell (TNF-alpha; [1]): 379.7 pg/10^5; TNF-alpha Concentration (TNF-alpha; [2]): 2537.1 pg/mL and 2609.2 pg/mL and 2154.0 pg/mL; TNF-alpha conc/live cell (TNF-alpha; [2]): 445.1 pg/10^5 and 367.5 pg/10^5 and 326.4 pg/10^5; TNF-alpha Concentration (TNF-alpha; [3]): 2746.9 pg/mL; TNF-alpha conc/live cell (TNF-alpha; [3]): 445.6 pg/10^5; TNF-alpha Concentration (TNF-alpha; [4]): 2819.6 pg/mL and 2784.2 pg/mL and 2636.8 pg/mL; TNF-alpha conc/live cell (TNF-alpha; [4]): 440.6 pg/10^5 and 464.0 pg/10^5 and 432.3 pg/10^5; TNF-alpha Concentration (TNF-alpha; [5]): 2852.4 pg/mL; TNF-alpha conc/live cell (TNF-alpha; [5]): 489.7 pg/10^5; TNF-alpha Concentration (TNF-alpha; [6]): 2791.9 pg/mL and 2870.4 pg/mL and 2895.0 pg/mL; TNF-alpha conc/live cell (TNF-alpha; [6]): 450.3 pg/10^5 and 552.0 pg/10^5 and 466.9 pg/10^5; TNF-alpha Concentration (TNF-alpha; [7]): 2552.6 pg/mL; TNF-alpha conc/live cell (TNF-alpha; [7]): 392.3 pg/10^5; TNF-alpha Concentration (TNF-alpha; [8]): 2738.1 pg/mL and 2506.5 pg/mL and 2413.2 pg/mL; TNF-alpha conc/live cell (TNF-alpha; [8]): 434.6 pg/10^5 and 353.0 pg/10^5 and 389.2 pg/10^5; TNF-alpha Concentration (TNF-alpha; [9]): 2746.8 pg/mL; TNF-alpha conc/live cell (TNF-alpha; [9]): 416.6 pg/10^5; TNF-alpha Concentration (TNF-alpha; [10]): 2741.2 pg/mL and 2807.3 pg/mL and 2692.0 pg/mL; TNF-alpha conc/live cell (TNF-alpha; [10]): 456.9 pg/10^5 and 438.6 pg/10^5 and 354.2 pg/10^5; TNF-alpha Concentration (TNF-alpha; [11]): 2443.4 pg/mL; TNF-alpha conc/live cell (TNF-alpha; [11]): 423.4 pg/10^5; TNF-alpha Concentration (TNF-alpha; [12]): 2569.3 pg/mL and 2318.5 pg/mL and 2442.3 pg/mL; TNF-alpha conc/live cell (TNF-alpha; [12]): 407.8 pg/10^5 and 374.0 pg/10^5 and 488.5 pg/10^5; TNF-alpha Concentration (TNF-alpha; [13]): 28.1 pg/mL; TNF-alpha conc/live cell (TNF-alpha; [13]): 5.6 pg/10^5; TNF-alpha Concentration (TNF-alpha; [14]): 26.8 pg/mL and 29.4 pg/mL; TNF-alpha conc/live cell (TNF-alpha; [14]): 5.1 pg/10^5 and 6.1 pg/10^5; TNF-alpha Concentration (TNF-alpha; [15]): 29.4 pg/mL; TNF-alpha conc/live cell (TNF-alpha; [15]): 5.8 pg/10^5; TNF-alpha Concentration (TNF-alpha; [16]): 26.8 pg/mL and 32.0 pg/mL; TNF-alpha conc/live cell (TNF-alpha; [16]): 6.1 pg/10^5 and 5.5 pg/10^5; TNF-alpha Concentration (TNF-alpha; [17]): 33.3 pg/mL; TNF-alpha conc/live cell (TNF-alpha; [17]): 6.1 pg/10^5; TNF-alpha Concentration (TNF-alpha; [18]): 32.0 pg/mL and 34.6 pg/mL; TNF-alpha conc/live cell (TNF-alpha; [18]): 5.8 pg/10^5 and 6.3 pg/10^5; TNF-alpha Concentration (TNF-alpha; [19]): 61.4 pg/mL; TNF-alpha conc/live cell (TNF-alpha; [19]): 9.7 pg/10^5; TNF-alpha Concentration (TNF-alpha; [20]): 90.9 pg/mL and 32.0 pg/mL; TNF-alpha conc/live cell (TNF-alpha; [20]): 14.2 pg/10^5 and 5.2 pg/10^5; TNF-alpha Concentration (TNF-alpha; [21]): 72.7 pg/mL; TNF-alpha conc/live cell (TNF-alpha; [21]): 11.0 pg/10^5; TNF-alpha Concentration (TNF-alpha; [22]): 95.0 pg/mL and 50.5 pg/mL; TNF-alpha conc/live cell (TNF-alpha; [22]): 14.8 pg/10^5 and 7.2 pg/10^5; LPS-induced CCL4 (in words) (CCL4/MIP-1 beta; LPS 5 ug/mL 24 hrs, 100 uM to 1 nM): significantly reduced; Concentration (CCL4/MIP-1 beta) (CCL4/MIP-1 beta; test article 0.001 uM, Mean): 13975.6 pg/mL; conc/live cell (CCL4/MIP-1 beta) (CCL4/MIP-1 beta; test article 0.001 uM, Mean): 2183.3 pg/10^5; MFI (Bead name: CCL4/MIP-1 beta) (CCL4/MIP-1 beta; test article 0.001 uM, Mean): 515.8; MFI (Bead name: CCL4/MIP-1 beta) (CCL4/MIP-1 beta; [23]): 551.5 and 527.0 and 469.0; Concentration (CCL4/MIP-1 beta) (CCL4/MIP-1 beta; [23]): 14562.9 pg/mL and 14163.0 pg/mL and 13200.9 pg/mL; conc/live cell (CCL4/MIP-1 beta) (CCL4/MIP-1 beta; [23]): 2554.9 pg/10^5 and 1994.8 pg/10^5 and 2000.1 pg/10^5; Concentration (CCL4/MIP-1 beta) (CCL4/MIP-1 beta; test article 0.01 uM, Mean): 15170.0 pg/mL
